# Where “and” joins values, the source holds several entries; their conditions need not be identical. Identical values can stand only once. Like-named read-outs stand apart in the source and are kept apart here.
# How the values were obtained:
# SARS CoV1 nsp14 = SARS CoV1 nsp14 (Severe acute respiratory syndrome coronavirus, UniProt P0C6X7); assay type: biochemical, SARS-CoV-1
# [1] = target: T1, SARS-Cov-1 nsp12:7L8:8 polymerase complex (Severe acute respiratory syndrome coronavirus, UniProt P0C6X7); assay: biochemical; assay type: biochemical
# nsp12:7:8 RTC = nsp12:7:8 RTC (Severe acute respiratory syndrome coronavirus, UniProt P0C6X7); assay type: biochemical, SARS-CoV
# nsp12-NiRAN = nsp12-NiRAN (Severe acute respiratory syndrome coronavirus, UniProt P0C6X7); assay type: biochemical, SARS-CoV
# nsp12 NiRAN active-site = nsp12 NiRAN active-site (Severe acute respiratory syndrome coronavirus, UniProt P0C6X7); assay: biochemical; assay type: biochemical, SARS-CoV
# [2] = target: Sars-CoV-2 nsp8 labeling by nsp12 (Severe acute respiratory syndrome coronavirus 2, UniProt P0DTD1); assay: nsp8-UMPylation competition assay with RTCs; assay type: biochemical; details: FIG. 13E
# [3] = system: SARS-CoV and SARS-CoV-2 RTCs; assay type: biochemical; details: equimolar concentrations of GTP
# [4] = target: T1, SARS-Cov-1 nsp12:7L8:8 polymerase complex; assay type: biochemical
# nsp12 = nsp12 (Severe acute respiratory syndrome coronavirus, UniProt P0C6X7); assay type: binding, SARS-CoV
# [5] = system: SARS-CoV-2 strain BavPatl; assay: Antiviral assay in HUH7.5 cells, viral RNA by RT-qPCR; assay type: cell-based; details: 2 days
# SARS-CoV-2 (WA1) = assay: microbe, parasite or virus in culture; assay type: cell-based
# [6] = system: HCoV-229E, HCoV-OC43, SARS-CoV-1 and SARS-CoV-2; assay: organism not typed; assay type: cell-based, human coronaviruses; details: Huh-7, read-out: Individual determinations of EC90 values
# HCoV-229E [7] = assay: Virus-induced CPE assay, HCoV-229E in BHK-21 cells (MTT); assay type: cell-based
# Description: In an initial screening, BHK-21 cells acutely infected with a seasonal human alpha coronavirus, HCoV-229E, were exposed to serial dilutions of Compound 1A.
# BHK-21 cells: Test compounds were dissolved in DMSO at 100 mM and then diluted in Minimum Essential Medium with Earle's salts (MEM-E) containing 1 mM sodium pyruvate and 25 μg/mL kanamycin, supplemented with 10% FBS (growth medium) to final concentrations of 100, 20, 4 and 0.8 μM (two […] replica plates each). After BHK-21 cells were grown to confluency in 96-well plates, growth medium was replaced with fresh maintenance medium (growth medium with 1% inactivated FBS in place of 10% FBS) containing serially diluted test compound and HCoV-229E at a multiplicity of infection (MOI) of 0.01. Uninfected cells in the presence of serially diluted compound were used to assess the cytotoxicity of compounds. After a 3-day incubation at 37° C. in a humidified 5% CO2 atmosphere, cell viability was determined by the MTT method (Pauwels, R et al. J. Virol. Methods 20(4):309-321 (1988)).
# SARS-CoV (Urbani) = assay type: cell-based; details: SARS-CoV-1, Huh-7, Table 5
# RD cells = details: human
# [8] = Cytotoxicity in mock infected BHK cells (MTT); assay type: cell-based, hamster; details: hamster, uninfected BHK-21 cells; BHK-21; Table 5
# Description: To determine the cytotoxicity, cells were seeded at an initial density of 1×10^6 cells/mL in 96 well plates containing Minimum Essential Medium with Earles's salts (MEM-E), L-glutamine, 1 mM sodium pyruvate and 25 mg/L kanamycin, supplemented with 10% fetal bovine serum. Cell cultures were then incubated at 37° C. in a humidified 5% CO2 atmosphere in the absence or presence of serial dilutions of test compounds. Cell viability was determined by the MTT method.
# Uninfected cells in the presence of serially diluted compound were used to assess the cytotoxicity of compounds.
# [9] = system: human coronavirus beta-OC43; assay: microbe, parasite or virus in culture; assay type: cell-based, HCoV-OC43; details: unidentified human coronavirus, OC43, Huh-7, read-out: VYR EC90
# HCoV-OC43 = assay: microbe, parasite or virus in culture; assay type: cell-based; details: Betacoronavirus 1, OC43, RD
# HCoV-229E [10] = details: MRC-5 cells; cited from earlier work
# [11] = system: human coronavirus alpha-229E; assay: microbe, parasite or virus in culture; assay type: cell-based, HCoV-229E
# Huh7 cells = details: human
# MERS-CoV = assay type: cell-based
# in vitro = details: human
# Salmonella/microsome = details: acknowledged by Merck; cited from earlier work
# dNHBE (HAE) cells = details: human
# [12] = Severe acute respiratory syndrome coronavirus 2, HAE, read-out: EC90, single replicates
# [13] = Severe acute respiratory syndrome coronavirus 2, HAE, read-out: Virus Yield Reduction Assay EC90
# [14] = read-out: EC90, single replicates
# [15] = read-out: Virus Yield Reduction Assay EC90
# [16] = read-out: Neutral Red Assay EC50
# [17] = Severe acute respiratory syndrome coronavirus 2, 48 h
# [18] = Severe acute respiratory syndrome coronavirus 2, Huh7.5, 48 h
structure (smiles),measurement,setting,value
"C[C@@]1(F)[C@H](O)[C@@H](COP(=O)(O)OP(=O)(O)OP(=O)(O)O)O[C@H]1n1cnc2c(=O)[nH]c(N)nc21 [AT-9010, 2′-fluoro-2′-C-methylguanosine-5′-triphosphate]",inhibition of N7-MTase activity,SARS CoV1 nsp14,no inhibition
same,EC50,[1],1500 to 2000 nM
same,inhibition of de novo synthesis on poly(A) template,[1],almost complete inhibition
same,inhibition of RNA synthesis from poly(C) template,nsp12:7:8 RTC,significantly reduces activity
same,inhibition of synthesis of poly(U)n RNA from poly(A)27 template,nsp12:7:8 RTC,inhibits synthesis of poly(U)n RNA equally as well as STP
same,fold preference AT9010: GTP,nsp12-NiRAN,~1.7 fold
same,fold preference AT9010: UTP,nsp12-NiRAN,~3.2 fold
same,IC50,nsp12 NiRAN active-site; IC50 of nsp8 labeling against GTP (FIG. 13C),2700 ± 300 nM
same,IC50,nsp12 NiRAN active-site; IC50 of nsp8 labeling against UTP (FIG. 13C),1900 nM
same,IC50,"nsp12 NiRAN active-site; IC50 of nsp8 labeling, competition with UTP (FIG. 13A)",870 nM
same,fold more efficient at blocking nsp8 labeling than STP,[2],4-5 fold
same,discrimination compared with natural GTP,[3],~5 fold
same,"Discrimination of ATEA-GTP, average",[4],27.0+/−7.9 fold and 21.0+/−1.5 fold and 27.0 fold and 21.0 fold
same,discrimination against GTP,[4],22 fold
same,inhibition of primer elongation,[4],no inhibition of primer elongation
same,thermal stability of nsp12,nsp12,provides more thermodynamic stability than any other native nucleotide
CNc1nc(N)nc2c1ncn2[C@@H]1O[C@H](COP(=O)(N[C@@H](C)C(=O)OC(C)C)Oc2ccccc2)[C@@H](O)[C@@]1(C)F (some centres unmarked) [Compound 1A],EC90,[5],3390 nM
same,EC50,[5]; listed as AT-511,1100 nM and 1130 nM
same,CC50,HUH 7.5 cells,> 20000 nM
CNc1nc(N)nc2c1ncn2[C@@H]1O[C@H](CO[P@@](=O)(N[C@@H](C)C(=O)OC(C)C)Oc2ccccc2)[C@@H](O)[C@@]1(C)F [Compound 1A],replicate EC90 determinations,SARS-CoV-2 (WA1),"^2Value represents the mean of two replicate EC90 determinations, 0.33 and 0.41 μg/mL"
same,EC90,"SARS-CoV-2 (WA1); Severe acute respiratory syndrome coronavirus 2, HAE, read-out: Average EC90 from two separate HAE assays",500 nM
same,EC90,SARS-CoV-2 (WA1); [12],570 nM
same,EC90,SARS-CoV-2 (WA1); [13],0.37 µg/mL and 640 nM
same,EC90,"SARS-CoV-2 (WA1); Severe acute respiratory syndrome coronavirus 2, HAE, read-out: replicate EC90 determinations",0.33 µg/mL
same,Selectivity Index,"SARS-CoV-2 (WA1); dNHBE, virus yield reduction assay",>135
same,EC90,SARS-CoV-2 (WA1); [14],700 nM and 520 nM and 420 nM
same,EC90,SARS-CoV-2 (WA1); [15],470 nM
same,EC90,[6],340 to 1200 nM
same,EC50,"HCoV-229E [7]; BHK-21, the 2 experiments averaged in Table 5, read-out: EC50, single experiments",2000 nM
same,EC50,"HCoV-229E [7]; Human coronavirus 229E, BHK-21, 72 h, BHK-21, dye staining, 3-day incubation, read-out: EC50",1800 nM
same,EC50,"HCoV-229E [7]; Human coronavirus 229E, BHK-21, BHK-21, the 2 experiments averaged in Table 5, read-out: EC50, single experiments",1600 nM
same,Selectivity Index (CC50/EC90),SARS-CoV (Urbani),>250
same,EC90,SARS-CoV (Urbani); [15],340 nM
same,CC50,RD cells,> 86000 nM
same,CC50 at 3 days,[8],> 100000 nM
same,EC90,[9],290 nM
same,EC50,HCoV-OC43; [16],2800 nM
same,EC90,HCoV-OC43; [15],2200 nM
same,EC50,HCoV-229E [10],> 100000 nM
same,Selectivity Index (CC50/EC90),"[11]; Huh-7, Table 5",>75
same,EC50,[11]; [16],1600 nM
same,EC90,"[11]; unidentified human coronavirus, Huh-7, 72 h, read-out: Virus Yield Reduction Assay EC90",1000 nM
same,EC50,"[11]; unidentified human coronavirus, Huh-7, 120 h, read-out: Neutral Red Assay EC50",1700 nM
same,EC50,"[11]; unidentified human coronavirus, Huh-7, read-out: Neutral Red EC50",1000 nM
same,EC90,"[11]; unidentified human coronavirus, Huh-7, read-out: VYR EC90",710 nM
same,EC50,"[11]; unidentified human coronavirus, Huh-7, read-out: Visual EC50, Huh7 cells, visual CPE",1000 nM
same,Neutral Red Assay CC50,Huh7 cells,>50^ μg/mL
same,difference of activity between MERS-CoV and other CoVs,MERS-CoV,30 fold
CC(C)C[C@H](NC(=O)OCc1ccccc1)C(=O)N[C@@H](C[C@@H]1CCNC1=O)C(O)S(=O)(=O)O (some centres unmarked) [GC376],EC90,[5]; [17],< 150 nM
same,EC50,[5]; [18],< 150 nM
same,CC50,in vitro,> 20000 nM
"CC(C)C(=O)OC[C@H]1O[C@@H](n2ccc(NO)nc2=O)[C@H](O)[C@@H]1O [Molnupiravir, molnupiravir]",EC50,[5],1710 nM
same,EC90,[5]; [17],4210 nM
same,EC50,[5]; [18],1700 nM
same,AMES test,Salmonella/microsome,positive
same,CC50,in vitro,> 20000 nM
"O=c1nc(NO)ccn1[C@@H]1O[C@H](CO)[C@@H](O)[C@H]1O [N4-hydroxycytidine, reference compound]",Selectivity Index (CC50/EC90),SARS-CoV-2 (WA1),>5.1
same,potency relative to Compound 1A in the same experiment (times less),SARS-CoV-2 (WA1),8 times
same,EC90,SARS-CoV-2 (WA1); [12],4700 nM
same,EC90,SARS-CoV-2 (WA1); [13],3900 nM
same,EC90,SARS-CoV-2 (WA1); [14],3100 nM
same,CC50,dNHBE (HAE) cells,> 19000 nM
